# Experimental data reported in paper PMC6792352, “Limited Chemical Structural Diversity Found to Modulate Thyroid Hormone Receptor in the Tox21 Chemical Library” (Environmental Health Perspectives, 2019).
# Where a name gives a salt, the structure may show the parent alone. Read-outs that look alike come from different tables or passages of the source.
# What was measured:
# [1] = biological target: T1, human TRβ ligand-binding domain (Homo sapiens, UniProt P10828); test: TRb-coa LanthaScreen TR-FRET coactivator (SRC-2 peptide) recruitment, agonist (TOX21_TRB_COA_Agonist_Followup_ratio, aeid 2244); format: biochemical; set-up: host or cells: GeneBLAzer UAS-bla HEK 293T; details: for AC50 / TRb-coa hitc: agonist; for AC50: read-out: TRb-coa AC50; for TRb-coa hitc: hit call from tcpl; for Emax: read-out: EMax (% of Control) trb-coa-agonist-followup-1
# T1 sequence (P10828 217-461 limits assumed): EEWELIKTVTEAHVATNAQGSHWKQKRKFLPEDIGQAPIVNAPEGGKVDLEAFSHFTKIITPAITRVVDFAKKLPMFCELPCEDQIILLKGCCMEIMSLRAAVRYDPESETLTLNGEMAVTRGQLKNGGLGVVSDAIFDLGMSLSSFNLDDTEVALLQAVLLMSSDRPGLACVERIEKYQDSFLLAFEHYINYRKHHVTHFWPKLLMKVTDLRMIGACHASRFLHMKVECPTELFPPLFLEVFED
# [2] = system: Tox21 cell viability assays (different cell types); test: Global cytotoxicity: eighteen Tox21 cell viability assays; format: cell-based
# [3] = system: thyroid hormone receptor (endogenous TRα and TRβ); test: GH3-TRE-Ag primary qHTS, luciferase reporter, agonist mode (TOX21_TR_LUC_GH3_Agonist, aeid 803); format: cell-based, rat; details: for GH3-TRE-Ag AC50 hitc: hit call from tcpl; for AC50: read-out: GH3-TRE-Ag AC50
# human RXRα = biological target: T2, human RXRα (Homo sapiens, UniProt P19793); test: RXRa-bla-Ag mammalian one-hybrid beta-lactamase assay (TOX21_TR_RXR_BLA_Agonist_Followup_ratio, aeid 2253); format: cell-based; details: for tr-followup-rxr-bla-agonist-1 hitc: hit call from tcpl; for Emax: read-out: EMax (% of Control) tr-followup-rxr-bla-agonist-1; for AC50: read-out: tr-followup-rxr-bla-agonist-1 AC50
# T2 construct: host or cells: GeneBLAzer UAS-bla HEK 293T
# T2 sequence (P19793 227-458 limits assumed): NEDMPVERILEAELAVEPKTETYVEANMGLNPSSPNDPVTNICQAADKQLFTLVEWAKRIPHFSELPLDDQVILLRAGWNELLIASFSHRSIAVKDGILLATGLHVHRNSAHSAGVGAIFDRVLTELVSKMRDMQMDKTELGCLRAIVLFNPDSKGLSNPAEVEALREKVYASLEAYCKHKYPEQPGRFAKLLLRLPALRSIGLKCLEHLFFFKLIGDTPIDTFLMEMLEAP
# [4] = system: thyroid hormone receptor (endogenous TRα and TRβ); test: GH3-TRE-Ag-Followup confirmation (TOX21_TR_LUC_GH3_Agonist_Followup, aeid 2226); format: cell-based, rat; details: for GH3-TRE-Ag-Followup hitc: hit call from tcpl; for AC50: read-out: GH3-TRE-Ag-Followup AC50
# GH3-TRE-Luc cell line [5] = system: GH3-TRE-Luc cell line
# [6] = system: thyroid hormone receptor (TR); test: Classification of TR actives across characterization assays (TR-Ag / RXR-Ag; TR model binary); set-up: key to Categorization Code: FP, false positive; details: TR agonist characterization
# Excerpt: Active rate comparison between receptors. […]; [Kleinstreuer et al. 2017]). We first removed chemicals classified as pharmaceuticals because these sets of chemicals are biased toward drugs targeting estrogen receptors and androgen receptors. […]. For TR, we cross-referenced these same chemicals for testing against TR and used candidate chemicals in Tables 2 and 3 to define active rates.
# Complete results from both GH3-TRE qHTS agonist, antagonist, and viability mode for the 8,305 compounds are provided in Excel Table S2. […]. […]. Together with some potential false negatives, these chemicals, totaling 84 in all, were screened for activity in a series of assays for confirmation in the GH3-TRE-Ag assay; specificity screening in the TRβ-UAS-bla HEK 293T and RXRα-UAS-bla HEK 293T mammalian one-hybrid assays; viability assays for the HEK293T parental cell line; and orthogonal screening in two TR:coactivator recruitment assays, TRa-coa and TRb-coa. […].
# [7] = biological target: T3, TRα ligand-binding domain (Homo sapiens, UniProt P10827); test: TRa-coa LanthaScreen TR-FRET coactivator (SRC-2 peptide) recruitment, agonist (TOX21_TRA_COA_Agonist_Followup_ratio, aeid 2230); format: biochemical; details: for AC50 / TRa-coa hitc: agonist; for AC50: read-out: TRa-coa AC50; for TRa-coa hitc: hit call from tcpl; for Emax: read-out: EMax (% of Control) tra-coa-agonist-followup-1
# T3 construct: the receptor LBDs expressed as glutathione S-transferase (GST) fusion proteins; purchased
# GH3-TRE-Luc cell line [8] = test: GH3-TRE-Via cell viability, CellTiter-Fluor (TOX21_TR_LUC_GH3_Antagonist_viability, aeid 805)
# in vitro = details: rat, gh3-tre-luc cells
# [9] = biological target: T1, human TRβ ligand-binding domain; test: TRb-bla agonist mammalian one-hybrid beta-lactamase assay (TOX21_TRB_BLA_Agonist_Followup_ratio, aeid 2236); format: cell-based; set-up: host or cells: GeneBLAzer UAS-bla HEK 293T; details: for AC50 / TRb-bla hitc: agonist; for AC50: read-out: TRb-bla AC50; for TRb-bla hitc: hit call from tcpl; for Emax: read-out: EMax (% of Control) trb-bla-agonist-followup-1
# [10] = system: thyroid hormone receptor (endogenous TRα and TRβ); test: GH3-TRE-Antag primary qHTS, luciferase reporter, antagonist mode with 1 nM T3 (TOX21_TR_LUC_GH3_Antagonist, aeid 804); format: cell-based, rat
# [11] = Rattus norvegicus, read-out: TR_LUC_GH3_Antagonist_viability AC50 (uM)
# [12] = Table S8, read-out: Average AC50 (uM) GH3-TRE-Antag
# [13] = antagonist mode, 1 nM T3, read-out: GH3-TRE-Antag AC50
# [14] = antagonist candidates, inactive samples arbitrarily set to AC50=[…] μM
# T3 sequence (P10827 163-410 isoform P10827-2 limits assumed, other chains not shown): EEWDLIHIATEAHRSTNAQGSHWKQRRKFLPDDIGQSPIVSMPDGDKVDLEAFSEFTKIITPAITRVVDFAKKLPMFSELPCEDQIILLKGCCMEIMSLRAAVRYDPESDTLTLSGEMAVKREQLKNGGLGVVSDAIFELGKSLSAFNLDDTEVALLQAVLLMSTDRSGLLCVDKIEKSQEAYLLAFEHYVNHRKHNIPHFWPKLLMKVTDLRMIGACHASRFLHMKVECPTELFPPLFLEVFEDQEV
Structure (SMILES),TRb-coa hitc [1],GLOBAL CYTOTOXICITY cytotox.median [2],GLOBAL CYTOTOXICITY cytotox.number_Active [2],EMax (% of Control) gh3-tre-agonist [3],GH3-TRE-Ag AC50 hitc [3],tr-followup-rxr-bla-agonist-1 hitc (human RXRα),Emax (human RXRα) [%],AC50 (human RXRα) [µM],EMax (% of Control) gh3-tre-agonist-followup-1_agonist [4],GH3-TRE-Ag-Followup hitc [4],"TR_LUC_GH3_Antagonist_viability hitc (GH3-TRE-Luc cell line [5]; rat, 24 h)",Categorization Code [6],TRa-coa hitc [7],AC50 (GH3-TRE-Luc cell line [8]; [11]) [µM],CC50 at 24 h (in vitro; AC50 (uM) modified / 1000) [µM],TRb-bla hitc [9],other results
"O=c1[nH]cnc2c1ncn2[C@H]1CC[C@@H](CO)O1 [2',3'-Dideoxyinosine]",0,>92,0,1.6 % of Control,0,0,-0.6,> 92,78.5 % of Control,1,0,FP,0,> 92,> 100,1,AC50 [1]: > 92 µM; Emax [1]: -0.448%; AC50 [3]: > 92 µM; AC50 [4]: 3.46 µM; AC50 [7]: > 92 µM; Emax [7]: -0.5%; AC50 [9]: 3.46 µM; Emax [9]: 74.4%
"N[C@@H](Cc1ccc(Oc2cc(I)c(O)c(I)c2)c(I)c1)C(=O)O [3,3',5'-Triiodo-L-thyronine]",1,>92,0,111.6 % of Control,1,0,–,> 92,87.2 % of Control,1,–,TR-Ag,1,–,–,1,EMax (% of Control) trb-coa-agonist-followup-1 [1]: 117.6 % of Control; EMax (% of Control) tr-followup-rxr-bla-agonist-1 (human RXRα): 17.4 % of Control; AC50 [4]: 0.537 µM; TR_LUC_GH3_Antagonist_viability hitc (GH3-TRE-Luc cell line [5]): 0; EMax (% of Control) tra-coa-agonist-followup-1 [7]: 152.6 % of Control; AC50 (GH3-TRE-Luc cell line [8]; read-out: TR_LUC_GH3_Antagonist_viability AC50): > 92 µM; EMax (% of Control) trb-bla-agonist-followup-1 [9]: 93.8 % of Control
"CCc1cc(OC)c(C[C@@H](C)N)cc1OC [(-)-2,5-Dimethoxy-4-ethylamphetamine hydrochloride]",–,–,–,–,–,–,–,–,–,–,–,–,–,–,–,–,resp_max GH3-TRE-Antag ([10]; Table S8): 85.7; resp_max GH3-TRE-Via (GH3-TRE-Luc cell line [8]; Table S8): 62.2
"CCN(CC)C(=O)N[C@@H]1C=C2c3cccc4[nH]cc(c34)C[C@@H]2N(C)C1 [(-)-(5S,8R)-Lisuride]",–,–,–,–,–,–,–,–,–,–,–,–,–,–,–,–,resp_max GH3-TRE-Antag ([10]; Table S8): 34.7; resp_max GH3-TRE-Via (GH3-TRE-Luc cell line [8]; Table S8): 42.3
CC[C@]12CCCN3CCc4c(n(c5ccccc45)C(=O)C1)[C@@H]32 [(-)-Eburnamonine],–,–,–,–,–,–,–,–,–,–,–,–,–,–,7.18,–,"resp_max GH3-TRE-Antag ([10]; Table S8): 88.8; AC50 [10, 12]: 6.85 µM; AC50 (GH3-TRE-Luc cell line [5]): 7.18 µM; resp_max GH3-TRE-Via (GH3-TRE-Luc cell line [5]): 66.2"
CC[C@H](O)C(C[C@H](C)N(C)C)(c1ccccc1)c1ccccc1 [(-)-alpha-Methadol hydrochloride],–,–,–,–,–,–,–,–,–,–,–,–,–,–,–,–,"resp_max GH3-TRE-Antag ([10]; Table S8): 76.3; AC50 [10, 12]: 58 µM; resp_max GH3-TRE-Via (GH3-TRE-Luc cell line [8]; Table S8): 67.0; AC50 (GH3-TRE-Luc cell line [8]; read-out: Average AC50 GH3-TRE-Via, Table S8, inactive set to 1000): 43.2 µM; CC50 at 24 h (in vitro; AC50 (uM) modified / 1000, Tox21_110001=Tox21_112827, viability, 1 nM T3 present, 24 h): 43.2 µM"
"CCC(=C(CC)c1ccc(O)cc1)c1ccc(O)cc1 [(Z,E)-Diethylstilbestrol, reference compound]",–,–,–,–,–,–,–,–,–,–,–,–,–,–,–,–,"AC50 [10, 13]: 17.1 µM; AC50 [3, 14]: > 92 µM; AC50 (GH3-TRE-Luc cell line [5]): 12.2 µM"
"O=C1NCN(c2ccccc2)C12CCN(CCCOc1ccc(F)cc1)CC2 [AMI-193, reference compound]",–,–,–,–,–,–,–,–,–,–,–,–,–,–,–,–,"AC50 [10, 13]: 15.8 µM; AC50 [3, 14]: > 92 µM; AC50 (GH3-TRE-Luc cell line [8]; read-out: GH3-TRE-Via AC50, inactive samples arbitrarily set to AC50=[…] μM): 14.1 µM"
NCC(=O)CCC(=O)O [Aminolevulinic acid hydrochloride],0,>92,0,29.9 % of Control,1,0,13,> 92,43.5 % of Control,1,0,FP,0,> 92,> 50,0,AC50 [1]: > 92 µM; Emax [1]: 3.6%; AC50 [4]: 22.5 µM; AC50 [7]: > 92 µM; Emax [7]: 1.1%; AC50 [9]: > 92 µM; Emax [9]: 12.7%
"CC(C)(c1ccc(O)cc1)c1ccc(O)cc1 [BPA, bisphenol A]",–,–,–,–,–,–,–,–,–,–,–,–,–,–,> 90,–,activity in GH3-TRE antagonist mode assay [10]: active in suppressing the TR transactivation assay
CN(C)S(=O)(=O)N(SC(F)(Cl)Cl)c1ccccc1 [Dichlofluanid],–,–,–,–,–,–,–,–,–,–,–,–,–,–,1.43,–,activity in GH3-TRE antagonist mode assay [10]: active; cytotoxicity in GH3 viability assay (GH3-TRE-Luc cell line [5]): loss of viability at virtually identical concentrations
COc1ccc(OC)c(C(O)C(C)N)c1 (centres unmarked) [Methoxamine hydrochloride],0,>92,0,25.7 % of Control,1,0,-0.7,> 92,29.2 % of Control,1,0,FP,0,> 92,> 50,0,AC50 [1]: > 92 µM; Emax [1]: 1.5%; AC50 [4]: 23.4 µM; AC50 [7]: > 92 µM; Emax [7]: 0.282%; AC50 [9]: > 92 µM; Emax [9]: 7.9%
Nc1ccc(S(=O)(=O)Nc2nccs2)cc1 [Sulfathiazole],–,>92,0,1.9 % of Control,0,0,30,> 92,19.5 % of Control,0,0,FP,–,> 92,> 50,–,AC50 [3]: > 92 µM
"CC[C@@]1(O)C(=O)OCc2c1cc1n(c2=O)Cc2cc3c(CN(C)C)c(O)ccc3nc2-1 [Topotecan hydrochloride, reference compound]",–,–,–,–,–,–,–,–,–,–,–,–,–,–,–,–,activity in GH3-TRE antagonist mode assay [10]: complete inhibition of luciferase activity; cytotoxicity in GH3 viability assay (GH3-TRE-Luc cell line [5]): not considered active
C[C@H](CCC(=O)NCC(=O)O)[C@H]1CC[C@H]2[C@@H]3[C@H](O)C[C@@H]4C[C@H](O)CC[C@]4(C)[C@H]3C[C@H](O)[C@]12C [glycocholic acid],0,–,0,27.2 % of Control,1,0,-1.3,> 92,34.6 % of Control,0,0,Equivocal RXR-Ag,0,> 92,–,0,AC50 [1]: > 92 µM; Emax [1]: -0.225%; GLOBAL CYTOTOXICITY cytotox.median ([2]; median over Tox21 viability assays): >92; activity in GH3-TRE agonist assay [3]: active; AC50 [7]: > 92 µM; Emax [7]: -0.137%; AC50 [9]: > 92 µM; Emax [9]: 14.8%
